Data published in ChEMBL document CHEMBL1154345, “Discovery of tricyclic 5,6-dihydro-1H-pyridin-2-ones as novel, potent, and orally bioavailable inhibitors of HCV NS5B polymerase” (Bioorg Med Chem Lett, 2009).

Legend:
[1] = tested on: Hepatitis C virus; experiment: microbe, parasite or virus in culture; assay type: functional, organism-based, Hepacivirus hominis, genotype 1b, Huh-luc/neo-ET; settings: Hepatitis C virus, genotype 1b, Huh-luc/neo-ET, 72 h
Description: Antiviral activity against HCV-1b infected human Huh-luc/neo-ET replicon cells after 72 hrs by luciferase based replicon assay

[2] = in vitro; settings: human
Description: Metabolic stability in human liver microsomes assessed as compound remaining after 60 mins at 1 uM

[3] = in vitro; settings: human, t1/2
[4] = tested on: Hepatitis C virus; experiment: microbe, parasite or virus in culture; assay type: functional, organism-based, Hepacivirus hominis, subtype 1a, Huh-lunet; settings: Hepatitis C virus, subtype 1a, Huh-lunet, 96 h
Description: Antiviral activity against HCV-1a infected in human Huh-lunet cells after 4 days by luciferase based replicon assay

## Cc1ccc(CN2C(=O)C(C3=NS(=O)(=O)c4cc(NS(C)(=O)=O)ccc4N3)=C(O)[C@@H]3C4CCC(CC4)[C@@H]32)cc1F
[1]
  EC50: 0.24 µM

## CS(=O)(=O)Nc1ccc2c(c1)S(=O)(=O)N=C(C1=C(O)[C@@H]3C4CCC(CC4)[C@@H]3N(Cc3cc(F)ccc3F)C1=O)N2
[1]
  EC50: 0.22 µM

## CS(=O)(=O)Nc1ccc2c(c1)S(=O)(=O)N=C(C1=C(O)[C@@H]3C4CCC(CC4)[C@@H]3N(Cc3cccc(F)c3F)C1=O)N2
[2]; liver microsomes
  remaining at 1 h, 1 µM: 75%
[1]
  EC50: 0.082 µM
[3]; liver microsomes
  half-life at 1 µM: > 60 min

## CS(=O)(=O)Nc1ccc2c(c1)S(=O)(=O)N=C(C1=C(O)[C@@H]3C4CCC(CC4)[C@@H]3N(Cc3cccc(C(F)(F)F)c3)C1=O)N2
[1]
  EC50: 0.39 µM

## CS(=O)(=O)Nc1ccc2c(c1)S(=O)(=O)N=C(C1=C(O)[C@@H]3C4CCC(CC4)[C@@H]3N(Cc3cc(Cl)ccc3F)C1=O)N2
[2]; liver microsomes
  remaining at 1 h, 1 µM: 100%
[1]
  EC50: 0.08 µM
[3]; liver microsomes
  half-life at 1 µM: > 60 min

## CS(=O)(=O)Nc1ccc2c(c1)S(=O)(=O)N=C(C1=C(O)[C@@H]3C4CCC(CC4)[C@@H]3N(Cc3ccccc3F)C1=O)N2
[2]; liver microsomes
  remaining at 1 h, 1 µM: 81%
[1]
  EC50: 0.026 µM
[3]; liver microsomes
  half-life at 1 µM: > 60 min

## CS(=O)(=O)Nc1ccc2c(c1)S(=O)(=O)N=C(C1=C(O)[C@@H]3C4CCC(CC4)[C@@H]3N(Cc3ccc(C(F)(F)F)cc3)C1=O)N2
[1]
  EC50: 1.1 µM

## CS(=O)(=O)Nc1ccc2c(c1)S(=O)(=O)N=C(C1=C(O)[C@@H]3[C@@H]4CC[C@@H](C4)[C@@H]3N(CC3CCCCC3)C1=O)N2
[1]
  EC50: 0.063 µM
[3]; liver microsomes
  half-life at 1 µM: 15 min

## CS(=O)(=O)Nc1ccc2c(c1)S(=O)(=O)N=C(C1=C(O)[C@@H]3[C@@H]4CC[C@@H](C4)[C@@H]3N(Cc3ccc(F)c(F)c3F)C1=O)N2
[2]; liver microsomes
  remaining at 1 h, 1 µM: 87%
[1]
  EC50: 0.046 µM
[3]; liver microsomes
  half-life at 1 µM: > 60 min

## COc1cc(CN2C(=O)C(C3=NS(=O)(=O)c4cc(NS(C)(=O)=O)ccc4N3)=C(O)[C@@H]3[C@@H]4CC[C@@H](C4)[C@@H]32)ccc1F
[2]; microsomes
  remaining at 1 h, 1 µM: 64%
[1]
  EC50: 0.059 µM
[3]; microsomes
  half-life at 1 µM: > 60 min

## Cc1ccc(CN2C(=O)C(C3=NS(=O)(=O)c4cc(NS(C)(=O)=O)ccc4N3)=C(O)[C@@H]3[C@@H]4CC[C@@H](C4)[C@@H]32)cc1F
[1]
  EC50: 1.7 µM

## CS(=O)(=O)Nc1ccc2c(c1)S(=O)(=O)N=C(C1=C(O)[C@@H]3[C@@H]4CC[C@@H](C4)[C@@H]3N(Cc3cccc(F)c3F)C1=O)N2
[1]
  EC50: 0.1 µM

## CS(=O)(=O)Nc1ccc2c(c1)S(=O)(=O)N=C(C1=C(O)[C@@H]3[C@@H]4CC[C@@H](C4)[C@@H]3N(Cc3ccc(F)cc3Cl)C1=O)N2
[1]
  EC50: 0.14 µM

## CS(=O)(=O)Nc1ccc2c(c1)S(=O)(=O)N=C(C1=C(O)[C@@H]3[C@@H]4CC[C@@H](C4)[C@@H]3N(Cc3ccc(Cl)cc3)C1=O)N2
[2]; microsomes
  remaining at 1 h, 1 µM: 100%
[1]
  EC50: 0.073 µM
[3]; microsomes
  half-life at 1 µM: > 60 min

## CS(=O)(=O)Nc1ccc2c(c1)S(=O)(=O)N=C(C1=C(O)[C@@H]3[C@@H]4CC[C@@H](C4)[C@@H]3N(Cc3ccc(F)cc3F)C1=O)N2
[2]; microsomes
  remaining at 1 h, 1 µM: 100%
[1]
  EC50: 0.055 µM
[3]; microsomes
  half-life at 1 µM: > 60 min

## CS(=O)(=O)Nc1ccc2c(c1)S(=O)(=O)N=C(C1=C(O)[C@@H]3[C@@H]4CC[C@@H](C4)[C@@H]3N(Cc3cc(Cl)ccc3F)C1=O)N2
[1]
  EC50: 0.3 µM

## CS(=O)(=O)Nc1ccc2c(c1)S(=O)(=O)N=C(C1=C(O)[C@@H]3[C@@H]4CC[C@@H](C4)[C@@H]3N(Cc3cc(F)ccc3F)C1=O)N2
[1]
  EC50: 0.26 µM

## CS(=O)(=O)Nc1ccc2c(c1)S(=O)(=O)N=C(C1=C(O)[C@@H]3[C@@H]4CC[C@@H](C4)[C@@H]3N(Cc3cccc(C(F)(F)F)c3)C1=O)N2
[1]
  EC50: 0.94 µM

## COc1cccc(CN2C(=O)C(C3=NS(=O)(=O)c4cc(NS(C)(=O)=O)ccc4N3)=C(O)[C@@H]3[C@@H]4CC[C@@H](C4)[C@@H]32)c1
[2]; liver microsomes
  remaining at 1 h, 1 µM: 83%
[1]
  EC50: 0.062 µM
[3]; liver microsomes
  half-life at 1 µM: > 60 min

## CS(=O)(=O)Nc1ccc2c(c1)S(=O)(=O)N=C(C1=C(O)[C@@H]3[C@@H]4CC[C@@H](C4)[C@@H]3N(Cc3ccc(C(F)(F)F)cc3)C1=O)N2
[1]
  EC50: > 3.3 µM

## CS(=O)(=O)Nc1ccc2c(c1)S(=O)(=O)N=C(C1=C(O)[C@@H]3[C@@H]4CC[C@@H](C4)[C@@H]3N(Cc3ccccc3F)C1=O)N2
[2]; liver microsomes
  remaining at 1 h, 1 µM: 83%
[1]
  EC50: 0.063 µM
[3]; liver microsomes
  half-life at 1 µM: > 60 min

## CS(=O)(=O)Nc1ccc2c(c1)S(=O)(=O)N=C(C1=C(O)[C@@H]3[C@@H]4CC[C@@H](C4)[C@@H]3N(Cc3ccccc3Cl)C1=O)N2
[1]
  EC50: 0.13 µM

## CS(=O)(=O)Nc1ccc2c(c1)S(=O)(=O)N=C(C1=C(O)[C@@H]3[C@H]4CC[C@H](C4)[C@@H]3N(CC3CCCCC3)C1=O)N2
[1]
  EC50: 0.022 µM
[3]; liver microsomes
  half-life at 1 µM: 44 min

## Cc1ccc(CN2C(=O)C(C3=NS(=O)(=O)c4cc(NS(C)(=O)=O)ccc4N3)=C(O)[C@@H]3[C@H]4CC[C@H](C4)[C@@H]32)cc1F
[2]; liver microsomes
  remaining at 1 h, 1 µM: 78%
[1]
  EC50: 0.77 µM
[3]; liver microsomes
  half-life at 1 µM: > 60 min

## CS(=O)(=O)Nc1ccc2c(c1)S(=O)(=O)N=C(C1=C(O)[C@@H]3[C@H]4CC[C@H](C4)[C@@H]3N(Cc3cccc(F)c3F)C1=O)N2
[1]
  EC50: 0.13 µM

## COc1cccc(CN2C(=O)C(C3=NS(=O)(=O)c4cc(NS(C)(=O)=O)ccc4N3)=C(O)[C@@H]3[C@H]4CC[C@H](C4)[C@@H]32)c1
[2]; liver microsomes
  remaining at 1 h, 1 µM: 61%
[1]
  EC50: 0.07 µM
[3]; liver microsomes
  half-life at 1 µM: > 60 min

## CS(=O)(=O)Nc1ccc2c(c1)S(=O)(=O)N=C(C1=C(O)[C@@H]3[C@H]4CC[C@H](C4)[C@@H]3N(Cc3cc(Cl)ccc3F)C1=O)N2
[1]
  EC50: 0.25 µM

## CS(=O)(=O)Nc1ccc2c(c1)S(=O)(=O)N=C(C1=C(O)[C@@H]3[C@H]4CC[C@H](C4)[C@@H]3N(Cc3cc(F)ccc3F)C1=O)N2
[1]
  EC50: 0.26 µM

## CS(=O)(=O)Nc1ccc2c(c1)S(=O)(=O)N=C(C1=C(O)[C@@H]3[C@H]4CC[C@H](C4)[C@@H]3N(Cc3ccccc3Cl)C1=O)N2
[2]; liver microsomes
  remaining at 1 h, 1 µM: 100%
[1]
  EC50: 0.09 µM
[3]; liver microsomes
  half-life at 1 µM: > 60 min

## CS(=O)(=O)Nc1ccc2c(c1)S(=O)(=O)N=C(C1=C(O)[C@@H]3[C@H]4CC[C@H](C4)[C@@H]3N(Cc3cccc(C(F)(F)F)c3)C1=O)N2
[1]
  EC50: 0.82 µM

## CS(=O)(=O)Nc1ccc2c(c1)S(=O)(=O)N=C(C1=C(O)[C@@H]3[C@H]4CC[C@H](C4)[C@@H]3N(Cc3ccc(C(F)(F)F)cc3)C1=O)N2
[1]
  EC50: > 3.3 µM

## CS(=O)(=O)Nc1ccc2c(c1)S(=O)(=O)N=C(C1=C(O)[C@@H]3[C@H]4CC[C@H](C4)[C@@H]3N(Cc3ccccc3F)C1=O)N2
[2]; liver microsomes
  remaining at 1 h, 1 µM: 89%
[1]
  EC50: 0.07 µM
[3]; liver microsomes
  half-life at 1 µM: > 60 min

## CS(=O)(=O)Nc1ccc2c(c1)S(=O)(=O)N=C(C1=C(O)[C@@H]3[C@H]4CC[C@H](C4)[C@@H]3N(Cc3ccccc3)C1=O)N2
[2]; liver microsomes
  remaining at 1 h, 1 µM: 80%
[1]
  EC50: 0.029 µM
[3]; liver microsomes
  half-life at 1 µM: > 60 min

## CS(=O)(=O)Nc1ccc2c(c1)S(=O)(=O)N=C(C1=C(O)[C@@H]3[C@H]4CC[C@H](C4)[C@@H]3N(Cc3ccco3)C1=O)N2
[1]
  EC50: 0.25 µM

## CC(C)CCN1C(=O)C(C2=NS(=O)(=O)c3cc(NS(C)(=O)=O)ccc3N2)=C(O)[C@@H]2C3CCC(CC3)[C@@H]21
[1]
  EC50: 0.029 µM
[3]; liver microsomes
  half-life at 1 µM: 59 min

## CS(=O)(=O)Nc1ccc2c(c1)S(=O)(=O)N=C(C1=C(O)[C@@H]3C4CCC(CC4)[C@@H]3N(Cc3ccco3)C1=O)N2
[2]; liver microsomes
  remaining at 1 h, 1 µM: 96%
[1]
  EC50: 0.08 µM
[3]; liver microsomes
  half-life at 1 µM: > 60 min

## CC(C)CCN1C(=O)C(C2=NS(=O)(=O)c3cc(NS(C)(=O)=O)ccc3N2)=C(O)[C@@H]2[C@@H]3CC[C@@H](C3)[C@@H]21
[1]
  EC50: 0.089 µM
[3]; liver microsomes
  half-life at 1 µM: 18 min

## CS(=O)(=O)Nc1ccc2c(c1)S(=O)(=O)N=C(C1=C(O)[C@@H]3C4CCC(CC4)[C@@H]3N(Cc3nccs3)C1=O)N2
[1]
  EC50: 3.3 µM

## CS(=O)(=O)Nc1ccc2c(c1)S(=O)(=O)N=C(C1=C(O)[C@@H]3[C@H]4CC[C@H](C4)[C@@H]3N(Cc3nccs3)C1=O)N2
[1]
  EC50: > 1 µM

## CC(C)CCN1C(=O)C(C2=NS(=O)(=O)c3cc(NS(C)(=O)=O)ccc3N2)=C(O)[C@@H]2[C@H]3CC[C@H](C3)[C@@H]21
[4]
  EC50: 0.072 µM
[1]
  EC50: 0.012 µM
[3]; liver microsomes
  half-life at 1 µM: 37 min

## CS(=O)(=O)Nc1ccc2c(c1)S(=O)(=O)N=C(C1=C(O)[C@@H]3[C@@H]4CC[C@@H](C4)[C@@H]3N(Cc3nccs3)C1=O)N2
[1]
  EC50: > 1 µM

## CS(=O)(=O)Nc1ccc2c(c1)S(=O)(=O)N=C(C1=C(O)[C@@H]3[C@H]4CC[C@H](C4)[C@@H]3N(CC3CCCC3)C1=O)N2
[1]
  EC50: 0.072 µM
[3]; microsomes
  half-life at 1 µM: 46 min

## CS(=O)(=O)Nc1ccc2c(c1)S(=O)(=O)N=C(C1=C(O)[C@@H]3[C@@H]4CC[C@@H](C4)[C@@H]3N(CC3CCCC3)C1=O)N2
[1]
  EC50: 0.16 µM
[3]; microsomes
  half-life at 1 µM: 17 min

## CS(=O)(=O)Nc1ccc2c(c1)S(=O)(=O)N=C(C1=C(O)[C@@H]3C4CCC(CC4)[C@@H]3N(CC3CCCC3)C1=O)N2
[1]
  EC50: 0.024 µM
[3]; liver microsomes
  half-life at 1 µM: 47 min

## CC(C)(C)CCN1C(=O)C(C2=NS(=O)(=O)c3cc(NS(C)(=O)=O)ccc3N2)=C(O)[C@@H]2[C@H]3CC[C@H](C3)[C@@H]21
[4]
  EC50: 0.18 µM
[1]
  EC50: 0.02 µM
[3]; microsomes
  half-life at 1 µM: 4 min

## CC(C)(C)CCN1C(=O)C(C2=NS(=O)(=O)c3cc(NS(C)(=O)=O)ccc3N2)=C(O)[C@@H]2[C@@H]3CC[C@@H](C3)[C@@H]21
[1]
  EC50: 0.05 µM
[3]; microsomes
  half-life at 1 µM: 3 min

## CS(=O)(=O)Nc1ccc2c(c1)S(=O)(=O)N=C(C1=C(O)[C@@H]3[C@@H]4CC[C@@H](C4)[C@@H]3N(Cc3ccco3)C1=O)N2
[1]
  EC50: 0.17 µM
